# Molecular target: T1, Swine Kidney Dehydropeptidase-I (DHP-I) (Sus scrofa, UniProt P22412)
# T1 construct: made soluble by treatment with butanol and purified by the ammonium sulfate fraction method, thereby producing DHP-I enzyme from a 75% ammonium sulfate fraction; from tissue; host or cells: swine kidney
# Test: Hydrolysis activity against DHP-I enzyme substrate by late assay
# Assay type: in vitro ADME
# Conditions: substrate concentration 100 µM, 37°C, 10 minutes
# Experimental: The swine kidney (8 kg) was homogenized and the enzyme protein was allowed to precipitate. After a connective lipid was removed with acetone, the resultant material was made soluble by treatment with butanol and purified by the ammonium sulfate fraction method, thereby producing DHP-I enzyme from a 75% ammonium sulfate fraction. The DHP-I enzyme was then adjusted to give an enzyme concentration of 25 mg/10 ml (phosphate buffer, pH 7.1), and divided into 1 ml portions. The portions were frozen and stored at -40°C or less until use. Glycyl dehydrophenylalanine (Gl-dh-Ph) and imipenem were employed as control compounds, and they were adjusted in situ each to give a concentration of 117 µM with the same sodium phosphate buffer solution. […] The solution was then incubated at 37°C for 10 minutes. The initial velocity of hydrolysis of the substrate was measured from a decrease in absorbency at a particular λmax of each of the substrates. A blank test was conducted in substantially the same manner as above by adding 0.2 ml of the sodium phosphate buffer solution (pH 7.1) to 1.2 ml of the above substrate.
# T1 sequence (P22412 17-384): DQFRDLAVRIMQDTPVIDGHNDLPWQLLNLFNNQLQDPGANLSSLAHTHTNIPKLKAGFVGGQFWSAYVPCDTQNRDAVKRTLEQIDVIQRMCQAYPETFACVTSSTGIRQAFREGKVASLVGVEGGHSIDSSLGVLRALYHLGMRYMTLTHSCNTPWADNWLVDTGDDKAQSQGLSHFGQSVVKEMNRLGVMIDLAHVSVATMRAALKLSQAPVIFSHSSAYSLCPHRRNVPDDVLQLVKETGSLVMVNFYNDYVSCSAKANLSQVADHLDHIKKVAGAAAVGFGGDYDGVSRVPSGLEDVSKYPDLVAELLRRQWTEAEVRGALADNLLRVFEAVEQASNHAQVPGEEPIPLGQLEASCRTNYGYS
smiles,measurement,value
"NCC(=O)NC(=Cc1ccccc1)C(=O)O [Gl-dh-Ph, Glycyl dehydrophenylalanine]",initial velocity of hydrolysis,17.4 µM/min
